Reference: US20140094370A1, “FORMULATION COMPONENT” (SYNGENTA LIMITED, priority 2011, published 2014)

What was measured:
[1] = test system: Chenopodium album (CHEAL), Abutilon theophrasti (ABUTH), Setaria viridis (SETVI) and Xanthium strumarium (XANST); experiment: Glasshouse herbicide efficacy test of fomesafen compositions with adjuvant against four weed species; assay type: in vivo; settings: mean over fomesafen 60 and 120 g/ha, three replicates, four weed species, 2, 7 and 14 days after application; adjuvant 0.5% v/v; 200 liters per hectare
Method: (§1) The aromatic ester bis-2-ethylhexyl phthalate was tested as an adjuvant in compositions of fomesafen, in a glasshouse against four weed species. An agrochemical composition was prepared containing 0.5% v/v of the adjuvant in a track sprayer and was applied at a volume of 200 liters per hectare. Fomesafen was applied at a rate of either 60 or 120 grams per hectare. The adjuvant oils were emulsified using a small amount of the surfactant Pluronic® PE 10500, which was present in the composition at a concentration of 0.02% v/v. The weed species and their growth stage at spraying were Chenopodium album (CHEAL; growth stage 14), Abutilon theophrasti (ABUTH; growth stage 12), Setaria viridis (SETVI; growth stage 13), and Xanthium strumarium (XANST; growth stage 12).
Each spray test was replicated three times. The efficacy of the herbicide was assessed visually and expressed as a percentage of the leaf area killed. Samples were assessed at time periods of 2, 7 and 14 days following application. The results shown below in Table 11 are mean averages over the two rates of fomesafen, three replicates, four weed species and the three assessment timings, and are compared to the efficacy of fomesafen without adjuvant and fomesafen with the commercially available adjuvant Turbocharge® (applied at 0.5% v/v).

[2] = test system: Polygonum convolvulus (POLCO), Brachiaria platyphylla (BRAPL), Digitaria sanguinalis (DIGSA) and Amaranthus tuberculatus (AMATU); experiment: Glasshouse herbicide efficacy test of mesotrione compositions with adjuvant against four weed species; assay type: in vivo
Method: as §1, with “mesotrione,” for “fomesafen,”, “Mesotrione” for “Fomesafen”, “at” for “at a rate of”, “Polygonum convolvulus (POLCO;” for “Chenopodium album (CHEAL; growth stage 14), Abutilon theophrasti (ABUTH; growth stage 12), Setaria viridis (SETVI;”, “Brachiaria platyphylla (BRAPL;” for “and Xanthium strumarium (XANST;”, “13)” for “12).”
Digitaria sanguinalis (DIGSA; growth stage 13) and Amaranthus tuberculatus (AMATU; growth stage 13).
Each spray test was replicated three times. The efficacy of the herbicide was assessed visually and expressed as a percentage of the leaf area killed. Samples were assessed at time periods of 7, 14 and 21 days following application. The results shown below in Table 10 are mean averages over the two rates of mesotrione, three replicates, four weed species and the three assessment timings, and are compared to the efficacy of mesotrione in the absence of adjuvant and mesotrione plus the commercial tank mix adjuvant Turbocharge® (applied at 0.5% v/v).

CS(=O)(=O)NC(=O)c1cc(Oc2ccc(C(F)(F)F)cc2Cl)ccc1[N+](=O)[O-] [Fomesafen]
Mean percentage kill (percentage of the leaf area killed), mean across species [1]: 14.3 C %

CS(=O)(=O)c1ccc(C(=O)C2C(=O)CCCC2=O)c([N+](=O)[O-])c1 [Mesotrione]
Mean percentage kill (percentage of the leaf area killed), mean across species ([2]; mean over mesotrione 60 and 120 g/ha, three replicates, four weed species, 7, 14 and 21 days after application, adjuvant 0.5% v/v, 200 liters per hectare): 49.6 B %

CCCCC(CC)COC(=O)c1ccccc1C(=O)OCC(CC)CCCC (stereo not drawn) [bis-2-ethylhexylphthalate, Bis(2-ethylhexyl) phthalate]
Adjuvant effect on efficacy of the herbicide (in words) ([2]; adjuvant 0.5% v/v with mesotrione, versus mesotrione without adjuvant): increases the efficacy of the herbicide mesotrione
